Measurements as given in PubChem BioAssay AID1963978 (Molecular Pharmacology Branch, DTP, NCI, 2024).

Test system: 616215-338-R-J1-PDC spheroids with HUVEC/MSC, viability
Assay: Anticancer human tumor 616215-338-R-J1-PDC patient-derived colon adenocarcinoma cell line growth inhibition [PI3K]
Conditions: for IC50: curve of first compound; for viability, T/C: stronger effect = lower value; active = viability on the fitted dose curve at most 10% of control; inactive = the rest
From the text: Combinatorial screen of targeted agents with the PI3K inhibitors inavolisib, alpelisib, duvelisib, and copanlisib in multi-cell type tumor spheroids
A high-throughput screen of multi-cell type tumor spheroids was designed to identify active combinations of targeted small molecules and PI3K pathway inhibitors. Complex spheroids include a stromal component modeled by human endothelial cells (HUVEC) and fibroblasts modeled by human mesenchymal stem cells (MSCs). The concentration ranges selected for each drug and investigational agent were based upon clinically achievable concentrations if the clinical Cmax of the agent was known.
Compounds. The drugs and investigational agents: inavolisib (NSC800729), alpelisib (NSC765974), duvelisib (NSC772469), copanlisib (NSC816437), ipatasertib (NSC767898), afuresertib (NSC778305), talazoparib (NSC767125), sapanisertib (NSC764658), selumetinib (NSC741078), tovorafenib (DAY101, NSC766906), vemurafenib (NSC761431), ravoxertinib (NSC781343), sotorasib (NSC818433), MRTX1133 (NSC 836407), abemaciclib (NSC 768073), palbociclib (NSC758247), venetoclax (NSC 766270), SY5609 (NSC837396), enzalutamide (NSC755605), and darolutamide (NSC825331), were obtained from the National Cancer Institute (NCI) Developmental Therapeutics Program Chemical Repository. The FDA-approved anticancer drug set is available from the NCI Developmental Therapeutics Program. […] The stock solutions were prepared in dimethyl sulfoxide (DMSO, Sigma-Aldrich, St. Louis, MO, cat. D2650) at 800-fold the tested concentration and stored at -70 degrees C prior to their use. All drugs and investigational agents were tested over a range starting from a high concentration at or near the clinical Cmax and decreasing in half-log increments. If the clinical Cmax for an agent had not been determined, the highest concentration tested was 10 microM.
Cell Culture. All cells were maintained in an incubator at 37 degrees C and 5% CO2 with 95% humidity. The PDC lines were cultured according to standard operating procedures established by the NCI PDMR (https://pdmr.cancer.gov/sops/default.htm). All PDCs were thawed and cultured in Matrigel-coated flasks prepared with a working solution of 1X Ham's F-12 nutrient mix, without supplementation (Invitrogen, Waltham, MA, cat. 11765054), 100 U/mL penicillin-streptomycin (Invitrogen, cat. 15140122), and 2.5% Matrigel (Corning Inc., Corning, NY, cat. 354248) for the first three passages. The 354836-022-R-J1-PDC, 475296-252-R-J1-PDC, and 997726-040-R-J2-PDC lines were cultured in 6A media, which includes advanced DMEM/F-12 (Thermo Fisher Scientific, cat. 12634028), 10 mM HEPES (Thermo Fisher Scientific, cat. 15630080), 1X GlutaMAX supplement (Thermo Fisher Scientific, cat. 35050061), 0.1 mg/mL primocin (InvivoGen, San Diego, CA, cat. ant-pm-2), 10% defined fetal bovine serum, heat inactivated (HyClone Laboratories Inc., Logan, UT, cat. SH30070.03HI), 50% L-WRN conditioned media (ATCC, cat. CRL-3276), 1.25 mM N-Acetyl-L-cysteine (Sigma-Aldrich, cat. A9165), 10 mM nicotinamide (Sigma-Aldrich, cat. N0636), 1X B-27 supplement (Thermo Fisher Scientific, cat. 17504044), 1X N-2 supplement (Thermo Fisher Scientific, cat. 17502048), and 10 microM Y-27632 dihydrochloride (Tocris Bioscience, Bristol, United Kingdom, cat. 1254). The 624824-186-R-J2-PDC line was cultured in 6C/Colon 1B media, which includes all 6A media components plus 50 ng/mL human EGF recombinant protein (Thermo Fisher Scientific, cat. PHG0311). […]

[1] = second compound 0.0316 µM, first compound 0.0316 µM
[2] = second compound 0.0316 µM, first compound 0.1 µM
[3] = second compound 0.0316 µM, first compound 0.316 µM
[4] = second compound 0.0316 µM, first compound 1 µM
[5] = second compound 0.0316 µM, first compound 3.16 µM
[6] = second compound 0.0316 µM, first compound 10 µM
[7] = second compound 0.1 µM, first compound 0.0316 µM
[8] = second compound 0.1 µM, first compound 0.1 µM
[9] = second compound 0.1 µM, first compound 0.316 µM
[10] = second compound 0.1 µM, first compound 1 µM
[11] = second compound 0.1 µM, first compound 3.16 µM
[12] = second compound 0.1 µM, first compound 10 µM
[13] = second compound 0.316 µM, first compound 0.0316 µM
[14] = second compound 0.316 µM, first compound 0.1 µM
[15] = second compound 0.316 µM, first compound 0.316 µM
[16] = second compound 0.316 µM, first compound 1 µM
[17] = second compound 0.316 µM, first compound 3.16 µM
[18] = second compound 0.316 µM, first compound 10 µM
[19] = second compound 1 µM, first compound 0.0316 µM
[20] = second compound 1 µM, first compound 0.1 µM
[21] = second compound 1 µM, first compound 0.316 µM
[22] = second compound 1 µM, first compound 1 µM
[23] = second compound 1 µM, first compound 3.16 µM
[24] = second compound 1 µM, first compound 10 µM
[25] = second compound 3.16 µM, first compound 0.0316 µM
[26] = second compound 3.16 µM, first compound 0.1 µM
[27] = second compound 3.16 µM, first compound 0.316 µM
[28] = second compound 3.16 µM, first compound 1 µM
[29] = second compound 3.16 µM, first compound 3.16 µM
[30] = second compound 3.16 µM, first compound 10 µM
[31] = second compound 10 µM, first compound 0.0316 µM
[32] = second compound 10 µM, first compound 0.1 µM
[33] = second compound 10 µM, first compound 0.316 µM
[34] = second compound 10 µM, first compound 1 µM
[35] = second compound 10 µM, first compound 3.16 µM
[36] = second compound 10 µM, first compound 10 µM
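Also: spheroids exposed to agents for seven days before the viability read.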

C[C@@H](NC(=O)c1ncnc(N)c1Cl)c1ncc(C(=O)Nc2cc(C(F)(F)F)c(Cl)cn2)s1 + Cc1nc(NC(=O)N2CCCC2C(N)=O)sc1-c1ccnc(C(C)(C)C(F)(F)F)c1
> 10 µM: IC50 (second compound 0.0316 µM) | IC50 (second compound 0.1 µM) | IC50 (second compound 0.316 µM) | IC50 (second compound 1 µM) | IC50 (second compound 3.16 µM)
inactive: viability, T/C [1] 91.9% | viability, T/C [2] 101% | viability, T/C [3] 94.3% | viability, T/C [4] 105% | viability, T/C [5] 112% | viability, T/C [6] 89.2% | viability, T/C [7] 111% | viability, T/C [8] 99.1% | viability, T/C [9] 101% | viability, T/C [10] 115% | viability, T/C [11] 93.7% | viability, T/C [12] 77.7% | viability, T/C [13] 107% | viability, T/C [14] 110% | viability, T/C [15] 106% | viability, T/C [16] 119% | viability, T/C [17] 109% | viability, T/C [18] 77.2% | viability, T/C [19] 112% | viability, T/C [20] 112% | viability, T/C [21] 107% | viability, T/C [22] 108% | viability, T/C [23] 108% | viability, T/C [24] 62.3% | viability, T/C [25] 102% | viability, T/C [26] 112% | viability, T/C [27] 103% | viability, T/C [28] 98.9% | viability, T/C [29] 81.1% | viability, T/C [30] 53.1% | viability, T/C [31] 97.5% | viability, T/C [32] 107% | viability, T/C [33] 88.9% | viability, T/C [34] 104% | viability, T/C [35] 68.3% | viability, T/C [36] 19.2%
4.85 µM: IC50 (second compound 10 µM)

C=CC(=O)N1CCN(c2nc(=O)n(-c3c(C)ccnc3C(C)C)c3nc(-c4c(O)cccc4F)c(F)cc23)C(C)C1 (centres undefined) + Cc1nc(NC(=O)N2CCCC2C(N)=O)sc1-c1ccnc(C(C)(C)C(F)(F)F)c1
inactive: viability, T/C [1] 104% | viability, T/C [2] 92.1% | viability, T/C [3] 99.2% | viability, T/C [4] 88.3% | viability, T/C [5] 113% | viability, T/C [6] 95.2% | viability, T/C [7] 100% | viability, T/C [8] 92.7% | viability, T/C [9] 91.6% | viability, T/C [10] 98.8% | viability, T/C [11] 103% | viability, T/C [12] 90.3% | viability, T/C [13] 108% | viability, T/C [14] 103% | viability, T/C [15] 111% | viability, T/C [16] 101% | viability, T/C [17] 104% | viability, T/C [18] 86.5% | viability, T/C [19] 97.5% | viability, T/C [20] 93.3% | viability, T/C [21] 109% | viability, T/C [22] 99.1% | viability, T/C [23] 110% | viability, T/C [24] 84.9% | viability, T/C [25] 98.6% | viability, T/C [26] 98.3% | viability, T/C [27] 102% | viability, T/C [28] 89.5% | viability, T/C [29] 95.8% | viability, T/C [30] 80.2% | viability, T/C [31] 94.4% | viability, T/C [32] 86.7% | viability, T/C [33] 98.7% | viability, T/C [34] 91.1% | viability, T/C [35] 95.9% | viability, T/C [36] 83.6%
> 10 µM: IC50 (second compound 0.0316 µM) | IC50 (second compound 0.1 µM) | IC50 (second compound 0.316 µM) | IC50 (second compound 1 µM) | IC50 (second compound 3.16 µM) | IC50 (second compound 10 µM)
